System: épidermes reconstruits d'Episkin
Assay: Maturation of the cornified envelope: count of mature envelopes (involucrin immunolabelling / Nile Red) after 7 days of treatment of reconstructed epidermis
Assay type: cell-based
Conditions: 168 h; C-glycoside 2,5% (p/v) alone; 30µl at J7, J9, J10, J13; read-out J14; read-out: augmentation du taux d'enveloppes cornées matures par rapport au témoin eau (Moy)
Source text: Les épidermes reconstruits d'Episkin ont été utilisés pour évaluer l'impact de molécules sur la maturation de l'enveloppe cornée.
Les Episkin J7 ont été cultivés avec le carraghénane et les associations carraghénane + C-BETA-D-XYLOPYRANOSIDE-2-HYDROXY-PROPANE (HYDROXYPROPYL TETRAHYDROPYRANTRIOL) pendant 7 jours. Après isolement du stratum, les enveloppes cornées sont extraites.
Trois types d'enveloppes cornées, matures, intermédiaires et immatures sont identifiés et comptées par un logiciel d'analyse d'image développé spécifiquement. […]
Les lames immunomarquées sont visionnées sous microscope (DM6000B Leica) suivant 2 modes d'observation : contraste de phase et fluorescence.
Le contraste de phase fournit une image en niveau de gris nous permettant de visualiser l'ensemble des cellules présentes dans le champ. Le mode fluorescence (jeu de filtercube) est utilisé pour visualiser les fluorochromes fixées à l'échantillon : • Le Nile Red est une sonde fluorescente permettant de localiser les zones hydrophobes plus particulièrement les lipides. […]

CC(O)C[C@@H]1OC[C@@H](O)[C@H](O)[C@H]1O (stereo partly drawn) [C-glycoside, C-β-D-xylopyranoside-2-hydroxy-propane]
activation at 25000 µg/mL: 22%
